This is an account of results in patent US20220388964A1 (HiberCell, Inc., priority 2019, published 2022).

Bounds are passed on as bounds.

For one assay, the target named is T1, GCN2 (Homo sapiens, UniProt Q9P2K8). Kind of assay: TR-FRET biochemical assay for inhibition of GCN2 (Example 108, for Examples 73-105). For orientation: TR-FRET usually uses a lanthanide donor and a delayed reading to cut background.
T1 sequence (Q9P2K8 whole entry): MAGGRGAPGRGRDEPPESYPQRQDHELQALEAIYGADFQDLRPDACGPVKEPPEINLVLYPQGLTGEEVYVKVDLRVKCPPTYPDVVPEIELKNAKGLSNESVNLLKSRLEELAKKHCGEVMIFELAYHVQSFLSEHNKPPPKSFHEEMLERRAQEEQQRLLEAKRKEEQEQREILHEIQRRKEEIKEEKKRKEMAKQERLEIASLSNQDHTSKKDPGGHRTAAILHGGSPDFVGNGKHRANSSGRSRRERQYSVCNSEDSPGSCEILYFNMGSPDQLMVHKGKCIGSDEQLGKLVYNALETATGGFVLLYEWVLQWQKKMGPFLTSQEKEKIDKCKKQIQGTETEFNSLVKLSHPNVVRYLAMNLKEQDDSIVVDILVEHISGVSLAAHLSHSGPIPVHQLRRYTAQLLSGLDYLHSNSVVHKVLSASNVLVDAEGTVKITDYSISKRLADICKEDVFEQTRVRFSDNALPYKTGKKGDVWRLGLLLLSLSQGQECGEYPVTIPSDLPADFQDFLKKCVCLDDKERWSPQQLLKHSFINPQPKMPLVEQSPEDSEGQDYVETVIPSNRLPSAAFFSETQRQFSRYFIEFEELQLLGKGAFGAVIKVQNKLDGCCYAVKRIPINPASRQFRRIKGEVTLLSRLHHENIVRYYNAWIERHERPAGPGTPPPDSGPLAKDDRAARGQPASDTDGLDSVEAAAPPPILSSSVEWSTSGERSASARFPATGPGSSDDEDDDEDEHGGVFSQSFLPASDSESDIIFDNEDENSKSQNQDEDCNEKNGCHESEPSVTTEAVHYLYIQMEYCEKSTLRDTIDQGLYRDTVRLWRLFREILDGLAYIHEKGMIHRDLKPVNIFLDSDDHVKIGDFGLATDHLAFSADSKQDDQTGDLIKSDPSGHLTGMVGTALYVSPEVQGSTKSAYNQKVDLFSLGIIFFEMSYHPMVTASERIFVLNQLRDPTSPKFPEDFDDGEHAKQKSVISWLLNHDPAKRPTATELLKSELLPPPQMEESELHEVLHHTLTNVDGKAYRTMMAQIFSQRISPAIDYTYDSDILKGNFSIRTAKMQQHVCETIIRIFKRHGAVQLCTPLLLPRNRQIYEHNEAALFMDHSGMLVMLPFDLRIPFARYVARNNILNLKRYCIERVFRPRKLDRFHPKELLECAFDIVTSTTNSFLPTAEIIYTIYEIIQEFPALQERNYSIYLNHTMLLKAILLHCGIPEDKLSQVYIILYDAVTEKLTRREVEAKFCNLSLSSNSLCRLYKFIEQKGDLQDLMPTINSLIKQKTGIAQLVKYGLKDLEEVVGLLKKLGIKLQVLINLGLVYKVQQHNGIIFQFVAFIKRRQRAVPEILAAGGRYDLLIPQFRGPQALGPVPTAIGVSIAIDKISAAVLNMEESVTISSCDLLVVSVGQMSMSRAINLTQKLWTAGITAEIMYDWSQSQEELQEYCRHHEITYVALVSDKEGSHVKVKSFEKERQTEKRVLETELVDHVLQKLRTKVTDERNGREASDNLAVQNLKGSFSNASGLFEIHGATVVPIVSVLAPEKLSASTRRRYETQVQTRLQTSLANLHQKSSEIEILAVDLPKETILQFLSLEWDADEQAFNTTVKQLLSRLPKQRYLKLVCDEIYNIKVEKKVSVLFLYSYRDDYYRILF
Usually IC50 stands for the concentration that inhibits the measured activity by half. With `CNC(=O)c1n[nH]c2c(F)c(-c3c(F)ccc(NS(=O)(=O)CC4CCC(O)C4)c3F)ccc12` (mixture of isomers) [Example 78, 6-[2,6-difluoro-3-[(3-hydroxycyclopentyl)methanesulfonamido]phenyl]-7-fluoro-N-methyl-1H-indazole-3-carboxamide], the half-maximal inhibitory concentration (IC50) is 2500 to 10000 nM.
The same measure, in the same setting: then `CNC(=O)c1n[nH]c2c(F)c(-c3c(F)ccc(NS(=O)(=O)CC4CCCC4)c3F)ccc12` [Example 74, 6-[3-(cyclopentylmethanesulfonamido)-2,6-difluorophenyl]-7-fluoro-N-methyl-1H-indazole-3-carboxamide], with 2500 to 10000 nM; and `CNC(=O)c1n[nH]c2c(F)c(-c3c(F)ccc(NS(=O)(=O)C4CCOCC4)c3F)ccc12` [Example 75, 6-[2,6-difluoro-3-(oxane-4-sulfonamido)phenyl]-7-fluoro-N-methyl-1H-indazole-3-carboxamide], with 2500 to 10000 nM.

Another assay deals with T1, GCN2. In words: TR-FRET assay for inhibition of GCN2 (Example 107, for Examples 40-72).
In the case of `CNC(=O)c1n[nH]c2c(F)c(-c3c(F)ccc(NS(=O)(=O)c4cc(C#N)cnc4OC(F)F)c3F)ccc12` [Example 46, 6-[3-[5-Cyano-2-(difluoromethoxy)pyridine-3-sulfonamido]-2,6-difluorophenyl]-7-fluoro-N-methyl-1H-indazole-3-carboxamide], the concentration for half-maximal inhibition (IC50) was < 500 nM.
Still for that read-out and setting: then `CNC(=O)c1n[nH]c2c(F)c(-c3c(F)ccc(NS(=O)(=O)c4cc(Cl)cnc4OC)c3F)cc(C)c12` [Example 47, 6-[3-(5-chloro-2-methoxypyridine-3-sulfonamido)-2,6-difluorophenyl]-7-fluoro-N,4-dimethyl-1H-indazole-3-carboxamide], with < 500 nM.
Take `COc1ncc(Cl)cc1S(=O)(=O)Nc1ccc(F)c(-c2ccc3c(C(=O)NCC(C)C)n[nH]c3c2F)c1F` [Example 48, 6-[3-(5-Chloro-2-methoxypyridine-3-sulfonamido)-2,6-difluorophenyl]-7-fluoro-N-(2-methylpropyl)-1H-indazole-3-carboxamide]: the half-maximal inhibitory concentration (IC50) was < 500 nM.
On to `CCNC(=O)c1n[nH]c2c(F)c(-c3c(F)ccc(NS(=O)(=O)c4cc(Cl)cnc4OC)c3F)ccc12` [Example 49, 6-(3-((5-Chloro-2-methoxypyridine)-3-sulfonamido)-2,6-difluorophenyl)-N-ethyl-7-fluoro-1H-indazole-3-carboxamide], for which the IC50 was < 500 nM.
Still for that read-out and setting: then `COc1ncc(Cl)cc1S(=O)(=O)Nc1ccc(F)c(-c2ccc3c(C(=O)NC4CCC(=O)N(C)C4)n[nH]c3c2F)c1F` (stereo not drawn) [Example 50, 6-[3-(5-Chloro-2-methoxypyridine-3-sulfonamido)-2,6-difluorophenyl]-7-fluoro-N-(1-methyl-6-oxopiperidin-3-yl)-1H-indazole-3-carboxamide], with < 500 nM; and `COc1ncc(Cl)cc1S(=O)(=O)Nc1ccc(F)c(-c2ccc3c(C(=O)NC4CCN(C(C)=O)C4)n[nH]c3c2F)c1F` (stereo not drawn) [Example 51, N-(1-acetylpyrrolidin-3-yl)-6-[3-(5-chloro-2-methoxypyridine-3-sulfonamido)-2,6-difluorophenyl]-7-fluoro-1H-indazole-3-carboxamide], with < 500 nM; and `COc1ncc(Cl)cc1S(=O)(=O)Nc1ccc(F)c(-c2ccc3c(C(=O)NCC(C)O)n[nH]c3c2F)c1F` (stereo not drawn) [Example 52, 6-[3-(5-Chloro-2-methoxypyridine-3-sulfonamido)-2,6-difluorophenyl]-7-fluoro-N-(2-hydroxypropyl)-1H-indazole-3-carboxamide], with < 500 nM.
Still for that read-out and setting: then `COc1ncc(Cl)cc1S(=O)(=O)Nc1ccc(F)c(-c2ccc3c(C(=O)NC(C)CO)n[nH]c3c2F)c1F` (stereo not drawn) [Example 53, 6-[3-(5-Chloro-2-methoxypyridine-3-sulfonamido)-2,6-difluorophenyl]-7-fluoro-N-(1-hydroxypropan-2-yl)-1H-indazole-3-carboxamide], with < 500 nM; and `COc1ncc(Cl)cc1S(=O)(=O)Nc1ccc(F)c(-c2ccc3c(C(=O)NC4CCNC4=O)n[nH]c3c2F)c1F` (stereo not drawn) [Example 54, 6-[3-(5-Chloro-2-methoxypyridine-3-sulfonamido)-2,6-difluorophenyl]-7-fluoro-N-(2-oxopyrrolidin-3-yl)-1H-indazole-3-carboxamide], with < 500 nM; and `COc1ncc(Cl)cc1S(=O)(=O)Nc1ccc(F)c(-c2ccc3c(C(=O)NC4CCCOC4)n[nH]c3c2F)c1F` (stereo not drawn) [Example 55, 6-[3-(5-Chloro-2-methoxypyridine-3-sulfonamido)-2,6-difluorophenyl]-7-fluoro-N-(oxan-3-yl)-1H-indazole-3-carboxamide], with < 500 nM.
For the compound `CCC(C)NC(=O)c1n[nH]c2c(F)c(-c3c(F)ccc(NS(=O)(=O)c4cc(Cl)cnc4OC)c3F)ccc12` (stereo not drawn) [Example 56, 6-[3-(5-Chloro-2-methoxypyridine-3-sulfonamido)-2,6-difluorophenyl]-7-fluoro-N-(sec-butyl)-1H-indazole-3-carboxamide], the half-inhibitory concentration (IC50) was < 500 nM.
Consider `COc1ncc(Cl)cc1S(=O)(=O)Nc1ccc(F)c(-c2ccc3c(C(=O)NC4CCNC4)n[nH]c3c2F)c1F` (stereo not drawn) [Example 57, 6-[3-(5-Chloro-2-methoxypyridine-3-sulfonamido)-2,6-difluorophenyl]-7-fluoro-N-(pyrrolidin-3-yl)-1H-indazole-3-carboxamide], for which the IC50 is < 500 nM.
Consider `CCCNC(=O)c1n[nH]c2c(F)c(-c3c(F)ccc(NS(=O)(=O)c4cc(Cl)cnc4OC)c3F)ccc12` [Example 58, 6-[3-(5-Chloro-2-methoxypyridine-3-sulfonamido)-2,6-difluorophenyl]-7-fluoro-N-propyl-1H-indazole-3-carboxamide], for which the half-inhibitory concentration (IC50) was < 500 nM.
Still for that read-out and setting: in the case of `CCCC(C)NC(=O)c1n[nH]c2c(F)c(-c3c(F)ccc(NS(=O)(=O)c4cc(Cl)cnc4OC)c3F)ccc12` (stereo not drawn) [Example 59, 6-[3-(5-Chloro-2-methoxypyridine-3-sulfonamido)-2,6-difluorophenyl]-7-fluoro-N-(pentan-2-yl)-1H-indazole-3-carboxamide] it was < 500 nM; in that of `COc1ncc(Cl)cc1S(=O)(=O)Nc1ccc(F)c(-c2ccc3c(C(=O)NC(C)CCO)n[nH]c3c2F)c1F` (stereo not drawn) [Example 60, 6-[3-(5-chloro-2-methoxypyridine-3-sulfonamido)-2,6-difluorophenyl]-7-fluoro-N-(4-hydroxybutan-2-yl)-1H-indazole-3-carboxamide], < 500 nM; in that of `CNC(=O)c1n[nH]c2c(F)c(-c3c(F)ccc(NS(=O)(=O)c4cccc5occc45)c3F)ccc12` [Example 61, 6-[3-(1-Benzofuran-4-sulfonamido)-2,6-difluorophenyl]-7-fluoro-N-methyl-1H-indazole-3-carboxamide], < 500 nM.
For the compound `CNC(=O)c1n[nH]c2c(F)c(-c3c(F)ccc(NS(=O)(=O)c4cccc5[nH]cnc45)c3F)ccc12` [Example 62, 6-[3-(1H-1,3-Benzodiazole-4-sulfonamido)-2,6-difluorophenyl]-7-fluoro-N-methyl-1H-indazole-3-carboxamide], the 50% inhibitory concentration (IC50) was in the range of 500 to 2500 nM.
Same read-out and setting: in the case of `CNC(=O)c1n[nH]c2c(F)c(-c3c(F)ccc(NS(=O)(=O)c4cccc5ncn(C)c45)c3F)ccc12` [Example 63, 6-[2,6-Difluoro-3-(3-methyl-1,3-benzodiazole-4-sulfonamido)phenyl]-7-fluoro-N-methyl-1H-indazole-3-carboxamide] it was < 500 nM; in that of `COc1ncc(Cl)cc1S(=O)(=O)Nc1ccc(F)c(-c2ccc3c(-c4ncco4)n[nH]c3c2F)c1F` [Example 64, 5-chloro-N-[2,4-difluoro-3-[7-fluoro-3-(1,3-oxazol-2-yl)-1H-indazol-6-yl]phenyl]-2-methoxypyridine-3-sulfonamide], < 500 nM; in that of `CNC(=O)c1n[nH]c2c(F)c(-c3c(F)ccc(NS(=O)(=O)c4cc(F)cnc4C)c3F)ccc12` [Example 65, 6-[2,6-difluoro-3-(5-fluoro-2-methylpyridine-3-sulfonamido)phenyl]-7-fluoro-N-methyl-1H-indazole-3-carboxamide], < 500 nM.
For the compound `CNC(=O)c1n[nH]c2c(F)c(-c3c(F)ccc(NS(=O)(=O)c4cc(F)cnc4C)c3F)ncc12` [Example 66, 6-[2,6-Difluoro-3-(5-fluoro-2-methylpyridine-3-sulfonamido)phenyl]-7-fluoro-N-methyl-1H-pyrazolo[4,3-c]pyridine-3-carboxamide], the 50% inhibitory concentration (IC50) was < 500 nM.
With `CNC(=O)c1n[nH]c2c(F)c(-c3c(F)ccc(NS(=O)(=O)c4cc(Cl)cnc4OC)c3F)ncc12` [Example 67, 6-[3-(5-Chloro-2-methoxypyridine-3-sulfonamido)-2,6-difluorophenyl]-7-fluoro-N-methyl-1H-pyrazolo[4,3-c]pyridine-3-carboxamide], the half-maximal inhibitory concentration (IC50) was < 500 nM.
Same read-out and setting: then `CNC(=O)c1n[nH]c2c(F)c(-c3c(F)ccc(NS(=O)(=O)c4ccc5ccoc5c4)c3F)ccc12` [Example 68], with 500 to 2500 nM.
The same measure, in the same setting: in the case of `CNC(=O)c1n[nH]c2c(F)c(-c3c(F)ccc(NS(=O)(=O)c4cccc5c4ncn5C)c3F)ccc12` [Example 69, 6-[2,6-Difluoro-3-(1-methyl-1,3-benzodiazole-4-sulfonamido)phenyl]-7-fluoro-N-methyl-1H-indazole-3-carboxamide] it was 500 to 2500 nM.
The same measure, in the same setting: then `CNC(=O)c1n[nH]c2c(F)c(-c3c(F)ccc(NS(=O)(=O)c4cc(F)cnc4OC)c3F)ncc12` [Example 70, 6-[2,6-Difluoro-3-(5-fluoro-2-methoxypyridine-3-sulfonamido)phenyl]-7-fluoro-N-methyl-1H-pyrazolo[4,3-c]pyridine-3-carboxamide], with < 500 nM.
In the case of `CNC(=O)c1n[nH]c2c(F)c(-c3c(F)ccc(NS(=O)(=O)c4cc(C#N)cnc4OC)c3F)ncc12` [Example 71, 6-[3-(5-Cyano-2-methoxypyridine-3-sulfonamido)-2,6-difluorophenyl]-7-fluoro-N-methyl-1H-pyrazolo[4,3-c]pyridine-3-carboxamide], the IC50 is < 500 nM.
Same read-out and setting: then `CNC(=O)c1n[nH]c2c(F)c(-c3c(F)ccc(NS(=O)(=O)c4cc(Cl)cnc4C)c3F)ncc12` [Example 72, 6-[3-(5-Chloro-2-methylpyridine-3-sulfonamido)-2,6-difluorophenyl]-7-fluoro-N-methyl-1H-pyrazolo[4,3-c]pyridine-3-carboxamide], with < 500 nM.
